Results from the RepoRT retention time repository (doi:10.1016/j.chroma.2015.11.014).

Assay: RP, Agilent ZORBAX Eclipse Plus C18, 150 × 2.1 mm, 3.5 µm, 40 °C, 0.3 mL/min, estimated dead time 1.1 min; A: water + 0.1% formic acid; B: acetonitrile + 0.1% formic acid; gradient (min/%B) 0/2 1/2 2/20 16.5/98 22/98
Conditions: stereoisomer not certain

Row | Compound | LC retention time
1 | COc1cccc(C2(O)CCCCC2C[N+](C)(C)[O-])c1 (configuration not stated) | 6.33 min
2 | CCCCCCCCCCCC[N+](C)(C)Cc1ccccc1 | 11.6 min
3 | CSc1ncnc2c1ncn2C1OC(CO)C(O)C1O (configuration not stated) | 5.67 min
4 | CCCCCCCCCC[N+](C)(C)CCCCCCCC | 12.4 min
5 | CC(C)c1ccc(OP(=O)(Oc2ccc(C(C)C)cc2)Oc2ccc(C(C)C)cc2)cc1 | 18.9 min
6 | Nc1ccc(S(=O)(=O)Nc2ncccn2)cc1 | 5.24 min
7 | CCCCCCCCCCC(C(=O)OC)[N+](C)(C)Cc1ccccc1 (configuration not stated) | 11.2 min
8 | COCC(=O)Nc1cc(Sc2ccccc2)ccc1N=C(NC(=O)OC)NC(=O)OC | 13.1 min
9 | COc1ccc(C(=O)c2ccccc2O)c(O)c1 | 11.8 min
10 | CCCCP(=O)(CCCC)CCCC | 11.1 min
11 | COc1cccc(OC)c1OC | 9.03 min
12 | CCC(C(N)=O)N1CCCC1=O (configuration not stated) | 5.14 min
13 | Cc1ccc(S(=O)(=O)O)cc1 | 5.4 min
14 | CC12CCC3C(CC=C4CC(O)CCC43C)C1CCC2=O (configuration not stated) | 11.6 min
15 | CCCCP(=O)(O)O | 4.77 min
16 | C=C(c1ccc(C(=O)O)cc1)c1cc2c(cc1C)C(C)(C)CCC2(C)C | 17.6 min
17 | CC(C(=O)O)c1ccc(CC(C)(C)O)cc1 (configuration not stated) | 8.21 min
18 | COCCOC(=O)Nc1cccc(N)c1 | 4.8 min
19 | CSc1ccc(O)cc1C | 9.8 min
20 | CCCCCCCC[N+](C)(C)CCCCCCCC | 11.7 min
21 | COc1cccc(C2(O)CCCCC2CN(C)C)c1 (configuration not stated) | 6.21 min

Row | Compound | LC retention time
22 | CCOC(=O)c1cnc(N)nc1N | 4.61 min
23 | CC(C)COP(=O)(OCC(C)C)OCC(C)C | 14 min
24 | O=C(OC1CC2CCC(C1)[N+]21CCCC1)C(O)(c1ccccc1)c1ccccc1 (configuration not stated) | 7.41 min
25 | CCC(C)(C)C(=O)OC1CC(CO)C=C2C=CC(C)C(CCC3CC(O)CC(=O)O3)C21 (configuration not stated) | 10.8 min
26 | CCC(CCC(C)O)COC(=O)C(C#N)=C(c1ccccc1)c1ccccc1 (configuration not stated) | 13.8 min
27 | O=C1OCCOC(=O)c2ccc(cc2)C(=O)OCCOC(=O)c2ccc(cc2)C(=O)OCCOC(=O)c2ccc1cc2 | 14.5 min
28 | CCCCCC[N+](CCCCCC)(CCCCCC)CCCCCC | 13.1 min
29 | Cc1ccccc1N=C(N)N=C(N)N | 4.67 min
30 | CC(C)(c1ccc(OP(=O)(Oc2ccccc2)Oc2ccccc2)cc1)c1ccc(OP(=O)(Oc2ccccc2)Oc2ccccc2)cc1 | 17.7 min
31 | CC[N+](CC)(CC)CC | 2.28 min
32 | O=C([O-])CCC[P+](c1ccccc1)(c1ccccc1)c1ccccc1 | 7.19 min
33 | Cc1nnc(-c2ccccc2)c(=O)n1N | 6.78 min
34 | c1ccc([P+](CCC2OCCCO2)(c2ccccc2)c2ccccc2)cc1 | 7.98 min
35 | CCOC(=O)NCCOc1ccc(Oc2ccccc2)cc1 | 13.1 min
36 | O=P(O)(O)Oc1ccccc1 | 3.47 min
37 | CCN(CC)C(=O)C(C#N)=Cc1cc(O)c(O)c([N+](=O)[O-])c1 | 9.38 min
38 | Cc1ccnc(NS(=O)(=O)c2ccc(N)cc2)n1 | 5.77 min
39 | Cc1cccc(Nc2ccncc2S(=O)(=O)NC(=O)NC(C)C)c1 | 7.63 min
40 | c1cncc(-c2nc3ccccc3[nH]2)c1 | 5.16 min
41 | C#CCC1=C(C)C(OC(=O)C2C(C=C(C)C)C2(C)C)CC1=O (configuration not stated) | 14.9 min
42 | COC(=O)NN=Cc1c[n+]([O-])c2ccccc2[n+]1[O-] | 5.82 min

Row | Compound | LC retention time
43 | OCC[P+](c1ccccc1)(c1ccccc1)c1ccccc1 | 7.1 min
44 | CCCCCCCCCC[N+](C)(C)Cc1ccccc1 | 10.4 min
45 | CC(C)[P+](c1ccccc1)(c1ccccc1)c1ccccc1 | 7.72 min
46 | CCCCCC[N+](C)(C)Cc1ccccc1 | 7.46 min
47 | CCN(CC)C(=O)c1cccc(CO)c1 | 6.97 min
48 | COC(=O)c1ccc(CNS(C)(=O)=O)cc1S(=O)(=O)NC(=O)Nc1nc(OC)cc(OC)n1 | 10 min
49 | CCOc1ccc(C[P+](c2ccccc2)(c2ccccc2)c2ccccc2)cc1 | 9.45 min
50 | CC(=O)c1ccc(C(=O)O)cc1 | 7.1 min
51 | CN1CCCC1=O | 4.39 min
52 | COC1=C(C)C(=O)C2=C(C1=O)C(COC(N)=O)C1(OC)C3NC3CN21 (configuration not stated) | 7.05 min
53 | CCCCC1C(=O)N(c2ccccc2)N(c2ccccc2)C1=O | 13.1 min
54 | CCCCCCCCCCCCCN1CC(C)OC(C)C1 (configuration not stated) | 10.4 min
55 | CC(C)(C)CC(C)(C)c1ccc(OCCOCC[N+](C)(C)Cc2ccccc2)cc1 | 11.5 min
56 | Cc1ccc(N)cc1N | 2.14 min
57 | NC(=O)N1c2ccccc2C=Cc2ccccc21 | 8.87 min
58 | C=Cc1ccc(C[N+](C)(C)C)cc1 | 5.4 min
59 | CCNCC(O)COc1ccc(CCOC)cc1 (configuration not stated) | 5.42 min
60 | CCCCCCCCn1sccc1=O | 11.9 min
61 | CCCCCCCCCCC(C(=O)c1ccc(OC)c(OC)c1)[N+](C)(C)C (configuration not stated) | 10.9 min
62 | CCCCCCOC(=O)c1ccccc1C(=O)OCCCCCC | 18.1 min
